# Laboratory results: ChEMBL document CHEMBL1148225, “Discovery and SAR of trisubstituted thiazolidinones as CCR4 antagonists” (Bioorg Med Chem Lett, 2004)
# Where “and” joins values, the source holds several entries; their conditions need not be identical. Identical values can stand only once.
# Target: T1, C-C chemokine receptor type 4 (Homo sapiens) (UniProt P51679)
# T1 sequence (whole entry): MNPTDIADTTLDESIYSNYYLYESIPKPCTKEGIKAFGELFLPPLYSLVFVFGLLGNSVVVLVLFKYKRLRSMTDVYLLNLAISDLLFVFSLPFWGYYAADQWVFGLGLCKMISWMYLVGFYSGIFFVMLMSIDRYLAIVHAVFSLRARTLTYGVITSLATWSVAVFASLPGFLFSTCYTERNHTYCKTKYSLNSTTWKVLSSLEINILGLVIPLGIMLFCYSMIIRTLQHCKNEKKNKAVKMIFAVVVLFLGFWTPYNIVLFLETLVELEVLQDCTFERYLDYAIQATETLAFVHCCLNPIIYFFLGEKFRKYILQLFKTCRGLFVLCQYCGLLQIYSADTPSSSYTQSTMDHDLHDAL
# Assay: Dose required to inhibit TARC-stimulated chemotaxis in CCR4+ Th2 cell lines derived from primary human T-cells
# Type: functional, cell-based
row,Compound,ED50 [µM]
1,C[C@@H](NC(=O)C[C@H]1S[C@H](c2ccc(Cl)cc2Cl)N(CC(=O)NCCCN2CCCCC2)C1=O)c1cccc2ccccc12,0.3

# Target: T2, C-C chemokine receptor type 4 (Homo sapiens, UniProt P51679)
# T2 sequence (P51679 whole entry): T1 sequence (whole entry)
# Assay: Inhibition of [125I]MDC binding to recombinant human C-C chemokine receptor type 4 (CCR4) expressed in murine pre-B cells
# Type: cell-based
row,Compound,IC50
1,COc1ccc(CNC(=O)C[C@H]2S[C@H](c3ccc(Cl)cc3Cl)N(CC(=O)NCCCN3CCOCC3)C2=O)c(OC)c1,32 µM
2,C[C@H](NC(=O)C[C@H]1S[C@H](c2ccc(Cl)cc2Cl)N(CC(=O)NCCCN2CCOCC2)C1=O)c1ccccc1,12 µM
3,O=C(C[C@H]1S[C@H](c2ccncc2)N(CC(=O)NCCCN2CCOCC2)C1=O)NCc1cccc2ccccc12,34 µM
4,CN(C)CCN1C(=O)[C@@H](CC(=O)NCc2cccc3ccccc23)S[C@@H]1c1ccc(Cl)cc1Cl,36 µM
5,O=C(C[C@H]1S[C@H](c2ccc(Cl)cc2Cl)N(CC(=O)NCCCN2CCOCC2)C1=O)NCc1cccs1,11 µM
6,O=C(C[C@H]1S[C@H](CCc2ccccc2)N(CC(=O)NCCCN2CCOCC2)C1=O)NCc1cccc2ccccc12,100 µM
7,O=C(C[C@H]1S[C@H](c2ccc(Cl)cc2Cl)N(CC(=O)NCCCN2CCOCC2)C1=O)NCCc1ccc(Cl)c(Cl)c1,13 µM
8,O=C(CC1SC(c2ccc(Cl)cc2)N(CC(=O)NCCCN2CCOCC2)C1=O)NCc1cccc2ccccc12 (configuration not stated),2.4 µM and 0.83 µM
9,O=C(C[C@H]1S[C@H](c2ccccc2Cl)N(CC(=O)NCCCN2CCOCC2)C1=O)NCc1cccc2ccccc12,11 µM
10,O=C(CN1C(=O)[C@@H](CC(=O)Nc2nccs2)S[C@@H]1c1ccc(Cl)cc1Cl)NCCCN1CCOCC1,11 µM
11,O=C(C[C@H]1S[C@H](c2ccc(Cl)cc2Cl)N(CCCCN2CCOCC2)C1=O)NCc1cccc2ccccc12,18 µM
12,Cc1ccccc1CNC(=O)C[C@H]1S[C@H](c2ccc(Cl)cc2Cl)N(CC(=O)NCCCN2CCOCC2)C1=O,11 µM
13,O=C(C[C@H]1S[C@H](c2ccc(Cl)c(Cl)c2)N(CC(=O)NCCCN2CCOCC2)C1=O)NCc1cccc2ccccc12,> 25 µM
14,O=C(C[C@H]1S[C@H](c2ccoc2)N(CC(=O)NCCCN2CCOCC2)C1=O)NCc1cccc2ccccc12,100 µM

# Second part, the compound after the results:
row,IC50,Compound
1,0.11 µM,C[C@@H](NC(=O)C[C@H]1S[C@H](c2ccc(Cl)cc2Cl)N(CC(=O)NCCCN2CCCCC2)C1=O)c1cccc2ccccc12
2,8 µM,CN1CCC(NC(=O)CN2C(=O)[C@@H](CC(=O)NCc3cccc4ccccc34)S[C@@H]2c2ccc(Cl)cc2Cl)CC1
3,7 µM,O=C(C[C@H]1S[C@H](c2cccc(Cl)c2)N(CC(=O)NCCCN2CCOCC2)C1=O)NCc1cccc2ccccc12
4,2.5 µM,O=C(C[C@H]1S[C@H](c2ccc(Cl)cc2Cl)N(CC(=O)NCCCN2CCOCC2)C1=O)NCc1ccc(-c2ccccc2)cc1
5,0.25 µM,C[C@@H](NC(=O)C[C@H]1S[C@H](c2ccc(Cl)cc2Cl)N(CC(=O)NCCCN2CCOCC2)C1=O)c1ccccc1 (stereo in doubt; 89)
6,1.5 µM,O=C(C[C@H]1S[C@H](c2ccc(Cl)cc2Cl)N(CC(=O)NCCCN2CCOCC2)C1=O)NCc1cc(Cl)cc(Cl)c1
7,0.69 µM,O=C(C[C@H]1S[C@H](c2ccc(Cl)cc2Cl)N(CC(=O)NCCCN2CCOCC2)C1=O)NCc1cccc2ccccc12
8,9 µM,NCCNC(=O)CCN1C(=O)[C@@H](CC(=O)NCc2cccc3ccccc23)S[C@@H]1c1ccc(Cl)cc1Cl
9,0.93 µM,O=C(C[C@H]1S[C@H](c2ccc(Cl)cc2Cl)N(CC(=O)NCCCN2CCOCC2)C1=O)NCc1cccc(Cl)c1
10,8 µM,C[C@@H](NC(=O)C[C@H]1S[C@H](c2ccc(Cl)cc2Cl)N(CC(=O)NCCCN2CCOCC2)C1=O)c1ccccc1 (stereo in doubt)
11,0.2 µM,O=C(C[C@H]1S[C@H](c2ccc(Cl)cc2Cl)N(CC(=O)NCCCN2CCCCC2)C1=O)NCc1cccc2ccccc12
12,5.6 µM,CN(C)CCCN1C(=O)[C@@H](CC(=O)NCc2cccc3ccccc23)S[C@@H]1c1ccc(Cl)cc1Cl
13,2.9 µM,O=C(CN1C(=O)[C@@H](CC(=O)N[C@@H]2CCc3ccccc32)S[C@@H]1c1ccc(Cl)cc1Cl)NCCCN1CCOCC1
14,7 µM,O=C(CN1C(=O)[C@@H](CC(=O)NC2CCCCC2)S[C@@H]1c1ccc(Cl)cc1Cl)NCCCN1CCOCC1
15,0.83 µM,O=C(C[C@H]1S[C@H](c2ccc(Cl)cc2)N(CC(=O)NCCCN2CCOCC2)C1=O)NCc1cccc2ccccc12
16,0.36 µM,CN(C)CCCNC(=O)CN1C(=O)[C@@H](CC(=O)NCc2cccc3ccccc23)S[C@@H]1c1ccc(Cl)cc1Cl
17,0.6 µM,O=C(C[C@H]1S[C@H](c2ccc(Cl)cc2Cl)N(CC(=O)N2CCC(N3CCCC3)CC2)C1=O)NCc1cccc2ccccc12
18,9 µM,O=C(C[C@H]1S[C@H](c2ccc(Cl)cc2Cl)N(CCN2CCOCC2)C1=O)NCc1cccc2ccccc12
19,1.4 µM,O=C(C[C@H]1S[C@H](c2ccc(Cl)cc2Cl)N(CC(=O)N2CCNCC2)C1=O)NCc1cccc2ccccc12
20,0.14 µM,Cc1c(Cl)cccc1CNC(=O)C[C@H]1S[C@H](c2ccc(Cl)cc2Cl)N(CC(=O)NCCCN2CCCCC2)C1=O
21,6 µM,O=C(C[C@H]1S[C@H](c2ccc(Cl)cc2Cl)N(CC(=O)NCCCN2CCOCC2)C1=O)NCc1ccc(Cl)c(C(F)(F)F)c1

# Target: T2, C-C chemokine receptor type 4
# Assay: Inhibitory activity against [125I]MDC binding to human Chemokine receptor type 4 expressed in murine pre-B cells
# Type: cell-based
row,Compound,IC50 [µM]
1,O=C(C[C@H]1S[C@H](c2ccc(C(F)(F)F)cc2C(F)(F)F)N(CC(=O)NCCCN2CCOCC2)C1=O)NCc1cccc2ccccc12,> 100
